Earlier results in patent US20050272704A1, “Compounds, compositions and methods for stabilizing transthyretin and inhibiting transthyretin misfolding” (priority 2004, published 2005).
Read-outs that look alike come from different tables or passages of the source.

diflunisal concentration in blood (4 h after a single 500 mg dose): > 300 µM
diflunisal concentration in blood (20 h after a single 500 mg dose): exceed 30 μM
SMILES: O=C(O)c1cc(-c2ccc(F)cc2F)ccc1O [diflunisal]
